Results reported in patent US20060069132A1, “Azolecarboxamide herbicides” (priority 2004, published 2006).

Columns and labels:
morningglory = test: Test B pre-/postemergence herbicide test; format: in vivo, Ipomoea coccinea
Method in brief: (§1)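 Herbicidal effect was judged by eye on a 0–100 scale after plants stood 13 to 15 days in the greenhouse following pre- or postemergence treatment with surfactant-containing formulations.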

cocklebur = test: Test B pre-/postemergence herbicide test; format: in vivo, Xanthium strumarium
Method in brief: as §1

giant foxtail = test: Test B pre-/postemergence herbicide test; format: in vivo, Setaria faberi
Method in brief: (§2)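 Seeds were planted and treated preemergence with compounds formulated in a non-phytotoxic solvent mixture containing surfactant, while plants at the 1- to 4-leaf stage (2 to 18 cm) received postemergence sprays. Flooded paddy plants were grown to the 2-leaf stage. After 13 to 15 days in a greenhouse, injury was visually rated 0–100 against untreated controls.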

pigweed = test: Test B pre-/postemergence herbicide test; format: in vivo, Amaranthus retroflexus
Method in brief: as §2

barnyardgrass [1] = test: Test B flooded paddy test; format: in vivo, Echinochloa crus-galli; details: 1000 g ai/ha, scale 0 to 100 (0 no effect, 100 complete control)
Method in brief: (§3)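 Treated at 2-leaf (paddy) or 1–4-leaf, 2–18 cm (postemergence); greenhouse 13–15 d; visual score vs control, 0 none to 100 complete control; dash = not tested.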

lambsquarters = test: Test B pre-/postemergence herbicide test; format: in vivo, Chenopodium album
Method in brief: as §2

rice = test: Test B flooded paddy test; format: in vivo, Oryza sativa; details: 1000 g ai/ha, scale 0 to 100 (0 no effect, 100 complete control)
Method in brief: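 Visual ratings, 0 (no effect) to 100 (complete control), made versus controls after 13–15 d greenhouse. Paddy plants treated at 2-leaf stage; postemergence plants at 1- to 4-leaf stage, 2–18 cm tall.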

large crabgrass = test: Test B pre-/postemergence herbicide test; format: in vivo, Digitaria sanguinalis
Method in brief: as §2

wheat = test: Test B postemergence herbicide test; format: in vivo, Triticum aestivum; design: key to Wheat plant response rating: 0 = no effect, 100 = complete control
Method in brief: as §3

ducksalad = test: Test B flooded paddy test; format: in vivo, Heteranthera limosa; details: 1000 g ai/ha, scale 0 to 100 (0 no effect, 100 complete control)
Method in brief: as §3

[2] = test system: small flower umbrella sedge; test: Test B flooded paddy test; format: in vivo, Cyperus difformis; details: 1000 g ai/ha, scale 0 to 100 (0 no effect, 100 complete control)
Method in brief: as §3

Surinam grass = test: Test B pre-/postemergence herbicide test; format: in vivo, Urochloa decumbens
Method in brief: as §2

wild oat = test: Test B postemergence herbicide test; format: in vivo, Avena fatua
Method in brief: as §3

barnyardgrass [3] = test: Test B pre-/postemergence herbicide test; format: in vivo, Echinochloa crus-galli
Method in brief: as §1

blackgrass = test: Test B postemergence herbicide test; format: in vivo, Alopecurus myosuroides
Method in brief: as §3

corn = test: Test B pre-/postemergence herbicide test; format: in vivo, Zea mays
Method in brief: as §2

[4] = Postemergence, 500 g ai/ha; visual rating after 13 to 15 days, scale 0 (no effect) to 100 (complete control)
[5] = postemergence, 125 g ai/ha; visual rating, scale 0 (no effect) to 100 (complete control)
[6] = preemergence, 125 g ai/ha; 0 to 100 scale, 0 is no effect, 100 is complete control
[7] = Postemergence, 500 g ai/ha, visual rating after 13 to 15 days, scale 0 (no effect) to 100 (complete control)
[8] = Preemergence, 500 g ai/ha, scale 0 to 100
[9] = postemergence, 125 g ai/ha, visual rating, scale 0 (no effect) to 100 (complete control)
[10] = preemergence, 125 g ai/ha, 0 to 100 scale, 0 is no effect, 100 is complete control
[11] = 125 g ai/ha; visual rating, scale 0 (no effect) to 100 (complete control); postemergence
[12] = 500 g ai/ha; visual rating, 0 = no effect, 100 = complete control; preemergence
[13] = 125 g ai/ha, 0 is no effect, 100 is complete control, preemergence
[14] = 125 g ai/ha, visual rating, scale 0 (no effect) to 100 (complete control), postemergence
[15] = 500 g ai/ha, visual rating, 0 = no effect, 100 = complete control, preemergence
[16] = postemergence, 500 g ai/ha, scale 0 to 100, 0 is no effect, 100 is complete control
[17] = 125 g ai/ha; 0 is no effect, 100 is complete control; preemergence
[18] = postemergence, 500 g ai/ha; scale 0 to 100, 0 is no effect, 100 is complete control
[19] = 500 g ai/ha; visual rating 0-100, 0 no effect, 100 complete control; preemergence
[20] = postemergence, 500 g ai/ha; visual rating, scale 0 (no effect) to 100 (complete control)
[21] = 500 g ai/ha, visual rating 0-100, 0 no effect, 100 complete control, preemergence
[22] = postemergence, 500 g ai/ha, visual rating, scale 0 (no effect) to 100 (complete control)

For CCCN1CCc2c(NC(=O)c3cc(C(C)(C)C)nn3CC)cccc2C1=O [Compound 65], the “Plant response rating, Morningglory” value (morningglory; [4]) was 20, the “Morningglory plant response rating” value (morningglory; [5]) was 10 and the “Plant response rating, Morningglory” value (morningglory; [6]) was 0. The “Plant response rating, Cocklebur” value (cocklebur; [7]) was 80, the “Cocklebur plant response rating” value (cocklebur; [8]) was 0 and the “Cocklebur plant response rating” value (cocklebur; [9]) was 60. The “Plant response rating, Cocklebur” value (cocklebur; [10]) was 0, the “Plant response rating, Foxtail, Giant” value (giant foxtail; [7]) was 20 and the “Foxtail, Giant plant response rating” value (giant foxtail; [8]) was 80. For the same compound, the “Foxtail, Giant plant response rating” value (giant foxtail; [9]) was 10, the “Plant response rating, Foxtail, Giant” value (giant foxtail; [10]) was 20 and the “Plant response rating, Pigweed” value (pigweed; [4]) was 60. The “Pigweed plant response rating” value (pigweed; [5]) was 40, the “Plant response rating, Pigweed” value (pigweed; [6]) was 90 and the “Barnyardgrass plant response rating” value (barnyardgrass [1]; visual rating, 13 to 15 days) was 80. For the same compound, the “Plant response rating, Lambsquarters” value (lambsquarters; [4]) was 70, the “Lambsquarters plant response rating” value (lambsquarters; [5]) was 70 and the “Plant response rating, Lambsquarters” value (lambsquarters; [6]) was 80. For the same compound, the “Rice plant response rating” value (rice; visual rating, 13 to 15 days) was 50, the “Plant response rating, Crabgrass, Large” value (large crabgrass; [7]) was 20 and the “Crabgrass, Large plant response rating” value (large crabgrass; [8]) was 80. For the same compound, the “Crabgrass, Large plant response rating” value (large crabgrass; [9]) was 10, the “Plant response rating, Crabgrass, Large” value (large crabgrass; [10]) was 20 and the “Plant response rating, Wheat” value (wheat; [4]) was 10. For the same compound, the “Wheat plant response rating” value (wheat; [5]) was 0, the “Ducksalad plant response rating” value (ducksalad; visual rating, 13 to 15 days) was 90 and the “Sedge, Umbrella plant response rating” value ([2]; visual rating, 13 to 15 days) was 90. The “Plant response rating, Surinam Grass” value (Surinam grass; [4]) was 20, the “Surinam Grass plant response rating” value (Surinam grass; [5]) was 20 and the “Plant response rating, Surinam Grass” value (Surinam grass; [6]) was 10. The “Plant response rating, Oat, Wild” value (wild oat; [4]) was 20, the “Oat, Wild plant response rating” value (wild oat; [5]) was 10 and the “Plant response rating, Barnyardgrass” value (barnyardgrass [3]; [7]) was 10. The “Barnyardgrass plant response rating” value (barnyardgrass [3]; [8]) was 90, the “Barnyardgrass plant response rating” value (barnyardgrass [3]; [9]) was 10 and the “Plant response rating, Barnyardgrass” value (barnyardgrass [3]; [10]) was 50. For the same compound, the “Plant response rating, Blackgrass” value (blackgrass; [4]) was 10, the “Blackgrass plant response rating” value (blackgrass; [5]) was 10 and the “Plant response rating, Corn” value (corn; [7]) was 20. For the same compound, the “Corn plant response rating” value (corn; [8]) was 10, the “Corn plant response rating” value (corn; [9]) was 20 and the “Plant response rating, Corn” value (corn; [10]) was 0.
With CCNC(=O)c1ccc(F)c(NC(=O)c2c3c(nn2CC)C(C)(C)CC3)c1 [Compound 353] the “Morningglory plant response rating” value (morningglory; [11]) was 10, the “Plant response rating, Morningglory” value (morningglory; [12]) was 20 and the “Plant response rating (0 to 100 scale), Cocklebur” value (cocklebur; [13]) was 0. The “Cocklebur plant response rating” value (cocklebur; [14]) was 10, the “Plant response rating, Cocklebur” value (cocklebur; [15]) was 20 and the “Cocklebur plant response rating” value (cocklebur; [16]) was 20. For the same compound, the “Plant response rating (0 to 100 scale), Foxtail, Giant” value (giant foxtail; [13]) was 0, the “Foxtail, Giant plant response rating” value (giant foxtail; [14]) was 20 and the “Plant response rating, Foxtail, Giant” value (giant foxtail; [15]) was 50. For the same compound, the “Foxtail, Giant plant response rating” value (giant foxtail; [16]) was 30, the “Plant response rating (0 to 100 scale), Pigweed” value (pigweed; [17]) was 0 and the “Pigweed plant response rating” value (pigweed; [11]) was 30. The “Pigweed plant response rating” value (pigweed; [18]) was 70, the “Barnyardgrass plant response rating” value (barnyardgrass [1]) was 70 and the “Lambsquarters plant response rating” value (lambsquarters; [11]) was 20. For the same compound, the “Lambsquarters plant response rating” value (lambsquarters; [18]) was 40, the “Rice plant response rating” value (rice) was 40 and the “Plant response rating (0 to 100 scale), Crabgrass, Large” value (large crabgrass; [13]) was 20. The “Crabgrass, Large plant response rating” value (large crabgrass; [14]) was 10, the “Plant response rating, Crabgrass, Large” value (large crabgrass; [15]) was 80 and the “Crabgrass, Large plant response rating” value (large crabgrass; [16]) was 10. For the same compound, the “Wheat plant response rating” value (wheat; [11]) was 0, the “Wheat plant response rating” value (wheat; [18]) was 10 and the “Ducksalad plant response rating” value (ducksalad) was 80. For the same compound, the “Sedge, Umbrella plant response rating” value [2] was 90, the “Plant response rating (0 to 100 scale), Surinam Grass” value (Surinam grass; [17]) was 0 and the “Surinam Grass plant response rating” value (Surinam grass; [11]) was 0. The “Plant response rating, Surinam Grass” value (Surinam grass; [12]) was 30, the “Surinam Grass plant response rating” value (Surinam grass; [18]) was 10 and the “Oat, Wild plant response rating” value (wild oat; [11]) was 10. For the same compound, the “Oat, Wild plant response rating” value (wild oat; [18]) was 40, the “Plant response rating (0 to 100 scale), Barnyardgrass” value (barnyardgrass [3]; [13]) was 40 and the “Barnyardgrass plant response rating” value (barnyardgrass [3]; [14]) was 10. The “Plant response rating, Barnyardgrass” value (barnyardgrass [3]; [15]) was 90, the “Barnyardgrass plant response rating” value (barnyardgrass [3]; [16]) was 10 and the “Blackgrass plant response rating” value (blackgrass; [11]) was 10. For the same compound, the “Blackgrass plant response rating” value (blackgrass; [18]) was 40, the “Corn plant response rating” value (corn; [14]) was 10 and the “Corn plant response rating” value (corn; [16]) was 20.
For CCn1nc(C(C)(C)C)cc1C(=O)Nc1cccc(SC(F)(F)F)c1 [Compound 130], the “Plant response rating, Morningglory” value (morningglory; [19]) was 10, the “Morningglory plant response rating” value (morningglory; [5]) was 100 and the “Morningglory plant response rating” value (morningglory; [20]) was 100. For the same compound, the “Plant response rating, Morningglory” value (morningglory; [6]) was 10, the “Plant response rating, Cocklebur” value (cocklebur; [21]) was 0 and the “Cocklebur plant response rating” value (cocklebur; [9]) was 100. The “Cocklebur plant response rating” value (cocklebur; [22]) was 100, the “Plant response rating, Cocklebur” value (cocklebur; [10]) was 0 and the “Plant response rating, Foxtail, Giant” value (giant foxtail; [21]) was 70. For the same compound, the “Foxtail, Giant plant response rating” value (giant foxtail; [9]) was 20, the “Foxtail, Giant plant response rating” value (giant foxtail; [22]) was 60 and the “Plant response rating, Foxtail, Giant” value (giant foxtail; [10]) was 20. The “Plant response rating, Pigweed” value (pigweed; [19]) was 100, the “Pigweed plant response rating” value (pigweed; [5]) was 100 and the “Pigweed plant response rating” value (pigweed; [20]) was 100. For the same compound, the “Plant response rating, Pigweed” value (pigweed; [6]) was 20, the “Barnyardgrass plant response rating” value (barnyardgrass [1]; visual rating, 13 to 15 days) was 40 and the “Plant response rating, Lambsquarters” value (lambsquarters; [19]) was 70. The “Lambsquarters plant response rating” value (lambsquarters; [5]) was 90, the “Lambsquarters plant response rating” value (lambsquarters; [20]) was 100 and the “Plant response rating, Lambsquarters” value (lambsquarters; [6]) was 0. For the same compound, the “Rice plant response rating” value (rice; visual rating, 13 to 15 days) was 0, the “Plant response rating, Crabgrass, Large” value (large crabgrass; [21]) was 100 and the “Crabgrass, Large plant response rating” value (large crabgrass; [9]) was 70. The “Crabgrass, Large plant response rating” value (large crabgrass; [22]) was 90, the “Plant response rating, Crabgrass, Large” value (large crabgrass; [10]) was 90 and the “Wheat plant response rating” value (wheat; [5]) was 20. The “Wheat plant response rating” value (wheat; [20]) was 40, the “Ducksalad plant response rating” value (ducksalad; visual rating, 13 to 15 days) was 10 and the “Sedge, Umbrella plant response rating” value ([2]; visual rating, 13 to 15 days) was 0. The “Plant response rating, Surinam Grass” value (Surinam grass; [19]) was 80, the “Surinam Grass plant response rating” value (Surinam grass; [5]) was 50 and the “Surinam Grass plant response rating” value (Surinam grass; [20]) was 90. The “Plant response rating, Surinam Grass” value (Surinam grass; [6]) was 60, the “Oat, Wild plant response rating” value (wild oat; [5]) was 40 and the “Oat, Wild plant response rating” value (wild oat; [20]) was 60. For the same compound, the “Plant response rating, Barnyardgrass” value (barnyardgrass [3]; [21]) was 70, the “Barnyardgrass plant response rating” value (barnyardgrass [3]; [9]) was 50 and the “Barnyardgrass plant response rating” value (barnyardgrass [3]; [22]) was 80. For the same compound, the “Plant response rating, Barnyardgrass” value (barnyardgrass [3]; [10]) was 10, the “Blackgrass plant response rating” value (blackgrass; [5]) was 20 and the “Blackgrass plant response rating” value (blackgrass; [20]) was 60. For the same compound, the “Plant response rating, Corn” value (corn; [21]) was 20, the “Corn plant response rating” value (corn; [9]) was 20 and the “Corn plant response rating” value (corn; [22]) was 40. For the same compound, the “Plant response rating, Corn” value (corn; [10]) was 10.
